In brackets after ≈: the same amount, converted by molar mass. Entries after “also recorded” stand apart in the source; their conditions may differ. Read-outs that look alike come from different tables or passages of the source. Values belong to the compound of their own block, whether it stands above or below them.
Assays:
[1] = tested on: activity-regulated Gln/MeAIB transport (SNAT activity) in hippocampal neurons; assay: Activity-regulated (spontaneous, 4-AP- or K+-stimulated) [14C]-MeAIB transport in primary hippocampal neurons; type: cell-based, rat; set-up: block of transport activity: dose or concentration left out as unconfirmed; conditions: for relative affinity for PMA-induced K+-activity-stimulated Gln/MeAIB transport activity: PMA 10 min before KCl 60 mM; for inhibition at 10 µM / IC50: Rattus norvegicus, Hippocampal neuron; for inhibition at 10 µM: read-out: block / inhibition of transport activity; for Active (annotation beside the compound name: active vs inactive derivatives): Table 1: SKA-41, and active and inactive derivatives; for potency to inhibit activity-regulated MeAIB transport relative to a comparator, in words: spontaneous and 4-AP stimulated transport; for reduction of activity-regulated Gln/MeAIB transport after preconditioning: brief exposure (KCl 45 mM, Glu or NMDA), transport measured after 24 hr
[2] = tested on: activity-regulated Gln/MeAIB transport (SNAT activity) in hippocampal neurons; conditions: cited from earlier work; for block of 14C-MeAIB transport activity: 2 mM
[3] = Max. solubility (Table 1); type: physicochemical
[4] = 4-AP-stimulated (depolarization) [14C]-MeAIB uptake, DIV16, n in brackets, read-out: SNAT Activity IC50, 4-AP
[5] = spontaneous [14C]-MeAIB uptake, DIV 19, n in brackets, read-out: SNAT Activity IC50, Spont
[6] = hippocampal neurons in vitro, 14C-MeAIB 20 μM, read-out: IC50 to inhibit activity-regulated Gln/MeAIB transport

solubility [3]: 50 µM (≈ 12 µg/mL)
SMILES: Cc1ccc(-c2csc(N)n2)c2ccccc12 [SKA-190, 4-(4-Methylnaphthalen-1-yl)thiazol-2-amine]
block of transport activity [1]: 90% | inhibition at 10 µM [1]: 90% | Active (annotation beside the compound name: active vs inactive derivatives) [1]: SKA-190 Active | inhibition of spontaneous activity-regulated 14C-MeAIB transport, in words ([1]; screens, 10 μM, GABA 2 mM): blocked spontaneous transport activity; also recorded: inhibited spontaneous transport activity

fold difference 4-AP IC50 over Spont IC50 [1]: 4.5 x | IC50 [1, 4]: 11.7 µM | IC50 [1, 5]: 2.6 µM
SMILES: Cc1ccc(-c2csc(N)n2)c2ccccc12 [drawing 63]

solubility [3]: 50 µM (≈ 13.7 µg/mL) | melting point: 350 °C
SMILES: Nc1nc(-c2ccc(-c3csc(N)n3)cc2)cs1 [SKA-230, 4,4′-(1,4-Phenylene)bis(thiazol-2-amine)]

solubility [3]: 100 µM (≈ 19 µg/mL)
SMILES: Cc1sc(N)nc1-c1ccccc1 [SKA-82]

solubility [3]: 100 µM (≈ 19.4 µg/mL)
SMILES: Nc1nc(-c2ccc(F)cc2)cs1 [SKA-77]

solubility [3]: 50 µM (≈ 12.7 µg/mL)
SMILES: c1ccc(-c2csc(Nc3ccccn3)n2)cc1 [SKA-265, 4-Phenyl-N-(pyridin-2-yl)thiazol-2-amine]

solubility [3]: 25 µM (≈ 6.31 µg/mL) | melting point: 135 to 137 °C
SMILES: c1ccc(Nc2nc(-c3ccccc3)cs2)cc1 [SKA-292, N,4-Diphenylthiazol-2-amine]

solubility [3]: 100 µM (≈ 17.6 µg/mL)
SMILES: Nc1nc(-c2ccccc2)cs1 [SKA-78]

solubility [3]: 10 µM (≈ 3.2 µg/mL) | melting point: 153 °C
SMILES: FC(F)(F)c1ccc(Nc2nc(-c3ccccc3)cs2)cc1 [SKA-268, 4-Phenyl-N-(4-(trifluoromethyl)phenyl)thiazol-2-amine]

solubility [3]: 50 µM (≈ 10.5 µg/mL)
SMILES: Nc1nc(-c2ccc(Cl)cc2)cs1 [SKA-80]

solubility [3]: 100 µM (≈ 17.5 µg/mL)
SMILES: Cc1nc(-c2ccccc2)cs1 [SKA-88]

solubility [3]: 50 µM (≈ 12.6 µg/mL)
SMILES: Nc1nc(-c2ccc(-c3ccccc3)cc2)cs1 [SKA-232]

solubility [3]: 10 µM (≈ 3.34 µg/mL) | melting point: 155 °C
SMILES: Cc1ccc(-c2csc(Nc3ccc(C(F)(F)F)cc3)n2)cc1 [SKA-269, 4-(p-Tolyl)-N-(4-(trifluoromethyl)phenyl)thiazol-2-amine]

solubility [3]: 50 µM (≈ 12 µg/mL) | melting point: 154 to 156 °C
SMILES: Cc1ccc2cccc(-c3csc(N)n3)c2c1 [SKA-193, 4-(7-Methylnaphthalen-1-yl)thiazol-2-amine]
block of transport activity [1]: 90% | inhibition at 10 µM [1]: 90% | Active (annotation beside the compound name: active vs inactive derivatives) [1]: SKA-193 Active | inhibition of spontaneous activity-regulated 14C-MeAIB transport, in words ([1]; screens, 10 μM, GABA 2 mM): blocked spontaneous transport activity; also recorded: inhibited spontaneous transport activity

solubility [3]: 10 µM (≈ 3.34 µg/mL) | melting point: 108 °C
SMILES: Cc1ccc(-c2csc(Nc3cccc(C(F)(F)F)c3)n2)cc1 [SKA-260, 4-(p-Tolyl)-N-(3-(trifluoromethyl)phenyl)thiazol-2-amine]

solubility [3]: 10 µM (≈ 3.5 µg/mL)
SMILES: Nc1nc(-c2ccc(-c3ccc(-c4csc(N)n4)cc3)cc2)cs1 [SKA-255]

solubility [3]: 25 µM (≈ 5.66 µg/mL)
SMILES: Nc1nc(-c2cccc3ccccc23)cs1 [SKA-75, 4-(Naphthalen-1-yl)thiazol-2-amine]
inhibition at 10 µM [1]: > 50% | inhibition of spontaneous activity-regulated 14C-MeAIB transport, in words ([1]; screens, 10 μM, GABA 2 mM): inhibited spontaneous transport activity | potency to inhibit activity-regulated MeAIB transport relative to a comparator, in words [1]: much less potent than riluzole

solubility [3]: 100 µM (≈ 19 µg/mL)
SMILES: Cc1ccc(-c2csc(N)n2)cc1 [SKA-79]

solubility [3]: 50 µM (≈ 12 µg/mL) | melting point: 178 to 179 °C
SMILES: Cc1ccc2cc(-c3csc(N)n3)ccc2c1 [SKA-198, 4-(6-Methylnaphthalen-2-yl)thiazol-2-amine]
inhibition at 10 µM [1]: > 50% | inhibition of spontaneous activity-regulated 14C-MeAIB transport, in words ([1]; screens, 10 μM, GABA 2 mM): inhibited spontaneous transport activity

solubility [3]: 25 µM (≈ 7.63 µg/mL) | melting point: 140 to 141 °C
SMILES: Nc1nc(-c2ccc3ccccc3c2)c(Br)s1 [SKA-220, 5-Bromo-4-(naphthalen-2-yl)thiazol-2-amine]
inhibition at 10 µM [1]: 90% | Active (annotation beside the compound name: active vs inactive derivatives) [1]: SKA-220 Active | inhibition of spontaneous activity-regulated 14C-MeAIB transport, in words ([1]; screens, 10 μM, GABA 2 mM): blocked spontaneous transport activity; also recorded: inhibited spontaneous transport activity | potency to inhibit activity-regulated MeAIB transport relative to a comparator, in words [1]: as potent as riluzole

The next lines start with the compound.

SMILES: CNCC(=O)O [sarcosine]
relative affinity for PMA-induced K+-activity-stimulated Gln/MeAIB transport activity [1]: ~8 µM | block of 14C-MeAIB transport activity [2]: ~90%

SMILES: Cc1nc(-c2ccccc2)c(C)s1 [SKA-89]
inhibition of spontaneous activity-regulated 14C-MeAIB transport, in words ([1]; screens, 10 μM, GABA 2 mM): inactive | solubility [3]: 100 µM (≈ 18.9 µg/mL)

SMILES: Nc1nc(-c2ccc3ccccc3c2)c(Cl)s1 [SKA-379, 5-Chloro-4-(naphthalen-2-yl)thiazol-2-amine]
potency to inhibit activity-regulated MeAIB transport relative to a comparator, in words [1]: as active as SKA-219 and SKA-220, respectively

SMILES: CN[C@@H]1C[C@H]2O[C@@](C)([C@@H]1OC)n1c3ccccc3c3c4c(c5c6ccccc6n2c5c31)C(=O)NC4 [staurosporine, reference compound]
effect on PMA stimulation of 14C-MeAIB transport ([1]; staurosporine 200 nM): abolished

SMILES: Cc1ccc(-c2nc(N)sc2Cl)c2ccccc12
fold difference 4-AP IC50 over Spont IC50 [1]: 5.2 x | IC50 [1, 4]: 7.4 µM | IC50 [1, 5]: 1.4 µM

SMILES: Nc1ccncc1 [4-AP, 4-aminopyridine, reference compound]
maximal stimulation of high-affinity 14C-MeAIB transport ([1]; 200 μM 4-AP): ~2 ×

SMILES: Nc1nc(-c2ccc3ccccc3c2)c(F)s1
fold difference 4-AP IC50 over Spont IC50 [1]: 1.3 x | IC50 [1, 4]: 17.9 µM | IC50 [1, 5]: 13.3 µM

SMILES: c1ccc(Nc2nc(-c3cccc4ccccc34)cs2)nc1 [SKA-258, 4-(Naphthalen-1-yl)-N-(pyridin-2-yl)thiazol-2-amine]
solubility [3]: 10 µM (≈ 3.03 µg/mL) | melting point: 225 °C

SMILES: N[C@@H](CCC(=O)O)C(=O)O [Glu, glutamate]
reduction of activity-regulated Gln/MeAIB transport after preconditioning [1]: ~50%

SMILES: Nc1nc(-c2cccc3ccccc23)c(Cl)s1 [drawing 70]
fold difference 4-AP IC50 over Spont IC50 [1]: 4.3 x | IC50 [1, 4]: 5.2 µM | IC50 [1, 5]: 1.2 µM

SMILES: CCCCCCCCCCCCCC(=O)O[C@@H]1[C@@H](C)[C@@]2(O)[C@@H](C=C(CO)C[C@]3(O)C(=O)C(C)=C[C@@H]23)[C@@H]2C(C)(C)[C@]12OC(C)=O [PMA, phorbal myristate acetate, reference compound]
stimulation of 14C-MeAIB transport ([1]; PMA 10 min prior to KCl (60 mM) depolarization): two-fold

SMILES: Nc1nnc(-c2cccc(Cl)c2Cl)c(N)n1 [lamotrigine, reference compound]
IC50 [1, 6]: 20 µM

SMILES: Cc1ccc(-c2nc(N)sc2Br)c2ccccc12
fold difference 4-AP IC50 over Spont IC50 [1]: 4.4 x | IC50 [1, 4]: 4.4 µM | IC50 [1, 5]: 1 µM

SMILES: Cc1sc(N)nc1-c1ccc(C)c2ccccc12 [SKA-247, 5-Methyl-4-(4-methylnaphthalen-1-yl)thiazol-2-amine]
block of transport activity [1]: 90% | inhibition at 10 µM [1]: 90% | IC50 [1, 6]: ~2 µM | Active (annotation beside the compound name: active vs inactive derivatives) [1]: SKA-247 Active | inhibition of spontaneous activity-regulated 14C-MeAIB transport, in words ([1]; screens, 10 μM, GABA 2 mM): blocked spontaneous transport activity; also recorded: inhibited spontaneous transport activity | solubility [3]: 50 µM (≈ 12.7 µg/mL)

SMILES: Nc1nc(-c2ccsc2)cs1 [SKA-94]
inhibition of spontaneous activity-regulated 14C-MeAIB transport, in words ([1]; screens, 10 μM, GABA 2 mM): inactive | solubility [3]: 100 µM (≈ 18.2 µg/mL)

SMILES: NCC(=O)O [glycine]
block of 14C-MeAIB transport activity [2]: ~90%

SMILES: Clc1ccc(Nc2nc(-c3cccc4ccccc34)cs2)cc1Cl [SKA-257, N-(3,4-Dichlorophenyl)-4-(naphthalen-1-yl)thiazol-2-amine]
solubility [3]: 10 µM (≈ 3.71 µg/mL) | melting point: 243 to 244 °C

SMILES: N[C@@H](Cc1c[nH]cn1)C(=O)O [histidine]
block of 14C-MeAIB transport activity [2]: ~90%

SMILES: FC(F)(F)c1cccc(Nc2nc(-c3cccc4ccccc34)cs2)c1 [SKA-251, 4-(Naphthalen-1-yl)-N-(3-(trifluoromethyl)phenyl)thiazol-2-amine]
solubility [3]: 10 µM (≈ 3.7 µg/mL) | melting point: 135 °C

SMILES: Nc1nc(-c2ccc3ccccc3c2)c(Cl)s1 [drawing 71]
fold difference 4-AP IC50 over Spont IC50 [1]: 1.5 x | IC50 [1, 4]: 9.3 µM | IC50 [1, 5]: 6.2 µM

SMILES: Nc1nc(-c2ccc(OC(F)(F)F)cc2)c(Cl)s1
fold difference 4-AP IC50 over Spont IC50 [1]: 1.6 x | IC50 [1, 4]: 7.4 µM | IC50 [1, 5]: 4.6 µM

SMILES: [Cl-].[K+] [KCl]
reduction of activity-regulated Gln/MeAIB transport after preconditioning [1]: ~50%

SMILES: CN[C@H](CC(=O)O)C(=O)O [NMDA, N-methyl-D-aspartate, reference compound]
reduction of activity-regulated Gln/MeAIB transport after preconditioning [1]: ~50%

SMILES: Nc1nc(-c2ccc3ccccc3c2)cs1 [SKA-76, 4-(Naphthalen-2-yl)thiazol-2-amine]
inhibition at 10 µM [1]: > 50% | inhibition of spontaneous activity-regulated 14C-MeAIB transport, in words ([1]; screens, 10 μM, GABA 2 mM): inhibited spontaneous transport activity | potency to inhibit activity-regulated MeAIB transport relative to a comparator, in words [1]: much less potent than riluzole | solubility [3]: 25 µM (≈ 5.66 µg/mL)

SMILES: O=C1NC(=O)C(c2ccccc2)(c2ccccc2)N1 [phenytoin, reference compound]
potency of riluzole relative to phenytoin to inhibit activity-regulated Gln/MeAIB transport [1]: 50 × | IC50 [1, 6]: 57 µM

SMILES: O=C(O)[C@@H]1CCCN1 [proline]
block of 14C-MeAIB transport activity [2]: ~90%

SMILES: COc1ccc(CCN(C)CCCC(C#N)(c2ccc(OC)c(OC)c2)C(C)C)cc1OC (stereo not drawn) [verapamil, reference compound]
inhibition of spontaneous activity-regulated 14C-MeAIB transport, in words [1]: blocked

SMILES: NC(=O)CC[C@H](N)C(=O)O [Gln, glutamine]
relative affinity for PMA-induced K+-activity-stimulated Gln/MeAIB transport activity [1]: ~97 µM | block of 14C-MeAIB transport activity [2]: ~90% | Km ([2]; read-out: Km of the activity-regulated Gln/MeAIB transport system): 30 µM

SMILES: C[C@H](N)C(=O)O [alanine]
block of 14C-MeAIB transport activity [2]: ~90%

From patent US11974988B2, “Neuroprotective compositions and methods of using the same” (The Board of Supervisors of Louisiana State Univer …, priority 2018, dated 2024)
